How the values were obtained:
[1] = system: histone H3, a proximal substrate of aurora-B; assay: In vivo phosphorylation of histone H3
AML = assay: Ph I AML study of oral AMG 900; type: in vivo, human
Source text: The data for both studies are as follows:

[2] = Ph I dose escalation: MTD and DLT determination; type: in vivo, human; conditions: once daily oral, 4 days on/10 days off
Source text: The dose escalation part of the study was aimed at determining a maximum tolerated dose (MTD) and if necessary the MTD with prophylactic GCSF support (MTD-G), and evaluating the safety, tolerability, pharmacokinetics and pharmacodynamics of AMG 900 in subjects with advanced solid tumors.
A subsequent non-accelerated phase (SNAP) then commenced (≦50% dose escalations once the first grade 2 related toxicity occurred; ≦25% if a DLT occurs) in a standard 3+3 design at the dose level where DLT or possibly related grade 2 toxicity was observed. The percent of dose escalation depended upon toxicities observed in previous cohorts. Intra-subject dose escalation was not allowed. An MTD was determined without prophylactic GCSF support. If neutropenia (or neutropenia related toxicity) was dose limiting, then dose escalation proceeded with prophylactic GCSF support beginning at the dose level at which neutropenia (or neutropenia related toxicity) was dose limiting.

CA-125 = CA-125 in ovarian cancer patient of the Ph I trial; type: in vivo, human; conditions: platinum-sensitive ovarian cancer patient; 16 mg once daily, 8 mg cycles 4-15, 12 mg at cycle 16; end of cycle 16
Method: Disease progression by appearance of new bone lesions in CRPC in the dose expansion phase were evaluated with bone scans. Bone scans were performed at baseline, 4 weeks after cycle 1 day 1, 8 weeks after cycle 1 day 1, and every 8 weeks thereafter until disease progression. Efficacy in ovarian cancer and CRPC were evaluated based on the Rustin criteria (1996) and PCWG2 guidelines, respectively. CA-125 in ovarian cancer and PSA in CRPC were collected every 4 weeks.

advanced solid tumors = assay: Ph I clinical dose escalation trial of oral AMG 900; tumor response by CT or MRI using RECIST criteria; type: in vivo, human
Source text: Some of the objectives for the study included (1) determination of the maximal tolerated dose (MTD) and if necessary, the MTD in conjunction with prophylactic amounts of granulocyte colony stimulating factor (GCSF); (2) to evaluate the PD effects of drug exposure on phospho-histone H3 (serine 10) proteins levels in tumor tissue; (3) to evaluate change in tumor volume by volumetric or MRI analysis; and (4) to evaluate tumor response assessed by CT or MRI using RECIST criteria. The clinical trial was conducted in accordance with the following design/protocol:
This is an open-label, sequential dose escalation study evaluating AMG 900 in subjects with advanced solid tumors. The study is being conducted in 2 parts: Part 1—Dose Escalation and Part 2—Dose Expansion. […] One cycle is defined as 14 days. Thus, 1 cycle=2 weeks (14 days) and DLT window=4 weeks (28 days).
In addition, treatment with proton pump inhibitors or H2 receptor antagonists was withheld at least 48 hours prior to the first dose of each treatment cycle until at least 1 hour after the fourth dose of a treatment cycle. Starting Dose:
In addition, treatment with proton pump inhibitors or H2 receptor antagonists were withheld at least 48 hours prior to the first dose of each treatment cycle until at least 1 hour after the fourth dose of a treatment cycle. One cycle was defined as 14 days. […] The investigator or sub-investigator performed a physical examination of each subject during clinic visits. A review of concomitant medications and an assessment of adverse events were performed at every visit.
Efficacy was assessed by standardized contrast-enhanced CT or MRI and evaluated according to RECIST criteria. RECIST 1.0 and RECIST 1.1 criteria is described in the Journal of National Cancer Institute, Vol. 92, No. 3:205-216, 2000 and European Journal of Cancer 45:228-247, 2009, respectively, both disclosures of which are hereby incorporated herein by reference in their entireties. CT or MRI scans with contrast were acquired at baseline, 4 weeks after cycle 1 day 1, 8 weeks after cycle 1 day 1, and every 8 weeks thereafter until disease progression. Scans were acquired with slice thickness of about 5 mm or less. Baseline imaging studies were performed within 2 weeks prior to study day 1, and where practicable, they were performed as close to the day of enrollment as possible.

[3] = system: multiple tumor xenografts, including three MDR xenograft models resistant to paclitaxel or docetaxel; assay: Growth of tumor xenografts; type: in vivo
solid tumors = conditions: days 1 and 8 or days 1, 2 and 3 of 3-week cycle, cited from earlier work
[4] = system: advanced solid malignancies; conditions: cited from earlier work
[5] = system: advanced refractory solid tumors; conditions: cited from earlier work
advanced solid tumor = conditions: daily dosing 5 or 10 consecutive days in 3-week cycles; cited from earlier work

With Cc1csc(-c2nnc(Nc3ccc(Oc4ncccc4-c4ccnc(N)n4)cc3)c3ccccc23)c1 [AMG 900, N-(4-((3-(2-amino-4-pyrimidinyl)-2-pyridinyl)oxy)phenyl)-4-(4-methyl-2-thienyl)-1-phthalazinamine] the “phosphorylation of histone H3” value [1] was “blocks the phosphorylation”, the “Observed Response to AMG 900” value (AML; Patient No. 14, 80 mg once per day oral, 4 days on/10 days off) was “Active” and the “Observed Response to AMG 900” value (AML; Patient No. 15, 80 mg once per day oral, 4 days on/10 days off) was “Active”. For the same compound, the “Observed Response to AMG 900” value (AML; Patient No. 16, 30 mg once per day oral, 7 days on/7 days off) was “Active”, the “doses at which MTD's and DLT's were observed” value [2] was “greater than 8 mg” and the “decrease in CA-125” value (CA-125) was 45%. The “Observed Response to AMG 900” value (advanced solid tumors; Patient No. 1, 1 mg once per day oral, 4 days on/10 days off, cholangiocarcinoma, at week 24) was “SD at week 24”, the “Observed Response to AMG 900” value (advanced solid tumors; Patient No. 2, 8 mg once per day oral, 4 days on/10 days off, prostate, at week 8) was “SD at week 8” and the “Observed Response to AMG 900” value (advanced solid tumors; Patient No. 3, 16 mg once per day oral, 4 days on/10 days off, ovarian, at week 40) was “SD at week 40”. For the same compound, the “Observed Response to AMG 900” value (advanced solid tumors; Patient No. 4, 16 mg once per day oral, 4 days on/10 days off, breast, at week 4) was “SD at week 4”, the “Observed Response to AMG 900” value (advanced solid tumors; Patient No. 5, 24 mg once per day oral, 4 days on/10 days off, colon, at week 8) was “SD at week 8” and the “Observed Response to AMG 900” value (advanced solid tumors; Patient No. 6, 25 mg once per day oral, 4 days on/10 days off, rectal, at week 56) was “PD at week 56”. For the same compound, the “Observed Response to AMG 900” value (advanced solid tumors; Patient No. 7, 24 mg once per day oral, 4 days on/10 days off, Medullary thyroid, at week 120) was “SD at week 120”, the “Observed Response to AMG 900” value (advanced solid tumors; Patient No. 8, 30 mg + GCSF once per day oral, 4 days on/10 days off, endometrial, at Week 64) was “PR at Week 64;” and the “Observed Response to AMG 900” value (advanced solid tumors; Patient No. 8, 30 mg + GCSF once per day oral, 4 days on/10 days off, endometrial, at week 72) was “SD at week 72”. The “Observed Response to AMG 900” value (advanced solid tumors; Patient No. 9, 30 mg + GCSF once per day oral, 4 days on/10 days off, chondrosarcoma, at week 40) was “SD at week 40”, the “Observed Response to AMG 900” value (advanced solid tumors; Patient No. 10, 40 mg + GCSF once per day oral, 4 days on/10 days off, colon, at week 32) was “SD at week 32” and the “Observed Response to AMG 900” value (advanced solid tumors; Patient No. 11, 40 mg + GCSF once per day oral, 4 days on/10 days off, Non-small cell lung, at week 32) was “SD at week 32”. For the same compound, the “Observed Response to AMG 900” value (advanced solid tumors; Patient No. 12, 50 mg + GCSF once per day oral, 4 days on/10 days off, thyroid, at week 32) was “SD at week 32”, the “Observed Response to AMG 900” value (advanced solid tumors; Patient No. 13, 40 mg + GCSF once per day oral, 4 days on/10 days off, prostate, at week 8) was “SD at week 8” and the “lowest once daily dose at which anti cancer activity was observed” value (advanced solid tumors; once daily oral, 4 days on/10 days off) was 8 mg. The “decrease of long axis diameter of tumor versus base line diameter on day 1” value (advanced solid tumors; patient with stage IV solid endometrial tumor, 30 mg + GCSF once daily, 4 days on/10 days off, week 24, CT, RECIST 1.0) was “approximately 50%”, the “reduction of short axis diameter of tumor versus base line diameter on day 1” value (advanced solid tumors; patient with stage IV-B solid ovarian tumor, 30 mg once daily, 4 days on/10 days off, two cycles, week 4, RECIST 1.1) was “about 30%” and the “decrease in SLD (sum of long axis diameters) on CT” value (advanced solid tumors; platinum-sensitive ovarian cancer patient, 16 mg once daily, 8 mg cycles 4-15, 12 mg at cycle 16, 4-day on-10 day off, end of cycle 16) was 16%. The “reduction of short axis diameter of tumor” value (advanced solid tumors; same endometrial solid tumor, 30 mg once daily, week 16 after eight (8) cycles, CT, RECIST 1.1) was “up to 40%” and the “growth of tumor xenografts” value [3] was “inhibits the growth”.
In the case of Cc1cc(Nc2ncc(F)c(NC3C4C=CC(C4)C3C(N)=O)n2)ccc1N1CCN(C)CC1 (stereo not drawn) [AS703569], the “impact on the patient's solid tumors” value (solid tumors) is listed as “no positive impact(s)” and the tolerability (solid tumors; various dosages) is listed as “tolerable”.
In the case of CCN(CCCOc1ccc2c(Nc3cc(CC(=O)Nc4cccc(F)c4)n[nH]3)ncnc2c1)CCOP(=O)(O)O [AZD1152], the “dosage amount safely administered” value ([4]; 2 hour IV infusion every 7 days) is listed as at most 450 mg and the disease response ([4]; patients with rapidly progressive diseases, within 450 mg dose) is listed as “significantly stabilize disease”.
In the case of CO[C@@H](C(=O)N1Cc2n[nH]c(NC(=O)c3ccc(N4CCN(C)CC4)cc3)c2C1)c1ccccc1 [Danusertib], the “amount that can be safely administered” value ([5]; over 24 hours in 14 day cycles without GCSF) is given as at most 500 mg/m^2 and the tumor response ([5]; within dose of 500 mg/m^2, small cell lung carcinoma, prolonged disease stabilization in other solid tumors) is given as “prolonged objective response”.
For CC(=O)NCC(=O)N1[C@@H]2CC[C@H]1c1ccc(Nc3ncc(C(F)(F)F)c(NC4CCC4)n3)cc12 [PF-03814735], the “objective response on the tumors” value (advanced solid tumor) is listed as “NO objective response”.
